Data: article PMC6968587, “Discovery of 3-alkyl-5-aryl-1-pyrimidyl-1H-pyrazole derivatives as a novel selective inhibitor scaffold of JNK3” (Journal of Enzyme Inhibition and Medicinal Chemistry, 2019)
Where two headings read alike, the source gives them in different places.

Assays:
Type in all cases: biochemical
[1] = test system: 38 selected protein kinases; experiment: Kinase panel screening, single dose 10 μM, in duplicate: other kinases of the 38-kinase panel
Protocol: (§1) Next, we used kinase panel screening in duplicate for compound 7a over 38 different kinases at a single-dose concentration of 10 μM (Table 2). The compound was indeed a selective JNK3 inhibitor with an excellent selectivity profile.

[2] = target: T1, GSK3β (Homo sapiens, UniProt P49841); experiment: GSK3β enzymatic activity (IC50), Reaction Biology Kinase HotSpot
T1 construct: purchased Reaction Biology Corp. (Kinase HotSpot service)

[3] = target: T2, JNK3 (Homo sapiens, UniProt P53779); experiment: Kinase panel screening, single dose 10 μM, in duplicate: JNK3; conditions: read-out: inhibitory activity on JNK3
Protocol: as §1

[4] = target: T2, JNK3; experiment: JNK3 enzymatic inhibitory activity (IC50)
Description: In an effort to reduce the molecular weight, the piperidine ring was diversified into pyrrolidine and azetidine with less carbon atoms.

[5] = enzymatic activity, Table 1, read-out: JNK3 IC50

T2 sequence (P53779 whole entry): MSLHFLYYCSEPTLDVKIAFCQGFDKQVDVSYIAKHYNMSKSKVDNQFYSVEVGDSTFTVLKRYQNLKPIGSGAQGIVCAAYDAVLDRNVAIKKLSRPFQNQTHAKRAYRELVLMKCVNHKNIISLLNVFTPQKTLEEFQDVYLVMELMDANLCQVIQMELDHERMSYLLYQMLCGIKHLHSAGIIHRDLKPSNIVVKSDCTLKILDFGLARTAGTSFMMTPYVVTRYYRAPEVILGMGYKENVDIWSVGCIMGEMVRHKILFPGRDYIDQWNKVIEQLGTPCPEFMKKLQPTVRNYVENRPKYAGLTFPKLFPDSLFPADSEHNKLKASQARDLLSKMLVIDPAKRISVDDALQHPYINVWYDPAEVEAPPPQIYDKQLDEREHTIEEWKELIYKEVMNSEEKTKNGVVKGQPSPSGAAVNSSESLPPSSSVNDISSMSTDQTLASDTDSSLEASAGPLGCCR
T1 sequence (P49841 whole entry): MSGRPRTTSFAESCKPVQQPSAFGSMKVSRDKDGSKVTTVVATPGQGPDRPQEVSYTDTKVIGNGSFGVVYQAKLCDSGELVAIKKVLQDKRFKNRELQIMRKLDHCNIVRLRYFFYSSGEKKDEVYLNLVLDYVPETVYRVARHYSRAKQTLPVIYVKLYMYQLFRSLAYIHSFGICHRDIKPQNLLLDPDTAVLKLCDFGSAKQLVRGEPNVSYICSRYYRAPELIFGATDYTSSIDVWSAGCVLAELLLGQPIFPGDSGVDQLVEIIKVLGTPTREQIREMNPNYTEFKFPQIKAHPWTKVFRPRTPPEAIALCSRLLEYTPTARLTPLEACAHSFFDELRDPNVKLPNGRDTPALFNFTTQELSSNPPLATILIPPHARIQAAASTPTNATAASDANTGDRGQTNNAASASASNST

SMILES	IC50 [4, 5] [µM]	further results
N#CCc1cc(-c2ccc(Cl)c(Cl)c2)n(-c2ccnc(N[C@H]3CCCN(C(=O)C4CC4)C3)n2)n1 [7a]	0.635	inhibition activity for most other kinases except GSK3β [1]: less than 20%; IC50 ([2]; Table 2, Kinase HotSpot service, read-out: Compound IC50* on GSK3β): 3.96 µM; selectivity for JNK3 over GSK3β in terms of IC50 ([2]; ratio of IC50 GSK3β / JNK3): six fold selective; inhibition at 10 µM [3]: 90%
N#CCc1cc(-c2ccc3ccccc3c2)n(-c2ccnc(N[C@H]3CCCN(C(=O)C4CC4)C3)n2)n1 [7b]	0.824	
N#CCc1cc(-c2ccc3c(c2)OCO3)n(-c2ccnc(N[C@H]3CCCN(C(=O)C4CC4)C3)n2)n1 [7c]	4.6	
N#CCc1cc(-c2ccc3c(c2)CCO3)n(-c2ccnc(N[C@H]3CCCN(C(=O)C4CC4)C3)n2)n1 [7d]	7.9	
N#CCc1cc(-c2ccc([N+](=O)[O-])cc2)n(-c2ccnc(N[C@H]3CCCN(C(=O)C4CC4)C3)n2)n1 [7f]	> 10	
N#CCc1cc(-c2ccc(Cl)c(Cl)c2)n(-c2ccnc(N[C@@H]3CCN(C(=O)C4CC4)C3)n2)n1 [8a, (R)-2-(1-(2-((1-(cyclopropanecarbonyl)pyrrolidin-3-yl)amino)pyrimidin-4-yl)-5-(3,4-dichlorophenyl)-1H-pyrazol-3-yl)acetonitrile]		IC50 [4]: 0.227 µM
N#CCc1cc(-c2ccc3ccccc3c2)n(-c2ccnc(N[C@@H]3CCN(C(=O)C4CC4)C3)n2)n1 [8b]	0.361	
N#CCc1cc(-c2ccc3c(c2)OCO3)n(-c2ccnc(N[C@@H]3CCN(C(=O)C4CC4)C3)n2)n1 [8c]	2.18	
N#CCc1cc(-c2ccc3c(c2)CCO3)n(-c2ccnc(N[C@@H]3CCN(C(=O)C4CC4)C3)n2)n1 [8d]	4.42	
N#CCc1cc(-c2cccc([N+](=O)[O-])c2)n(-c2ccnc(N[C@@H]3CCN(C(=O)C4CC4)C3)n2)n1 [8e]	> 10	
N#CCc1cc(-c2ccc([N+](=O)[O-])cc2)n(-c2ccnc(N[C@@H]3CCN(C(=O)C4CC4)C3)n2)n1 [8f]	7.89	
N#CCc1cc(-c2ccc(Cl)c(Cl)c2)n(-c2ccnc(N[C@H]3CCN(C(=O)C4CC4)C3)n2)n1 [9a]		IC50 [4]: 3.11 µM
N#CCc1cc(-c2ccc3ccccc3c2)n(-c2ccnc(N[C@H]3CCN(C(=O)C4CC4)C3)n2)n1 [9b]	2.9	
N#CCc1cc(-c2ccc3c(c2)OCO3)n(-c2ccnc(N[C@H]3CCN(C(=O)C4CC4)C3)n2)n1 [9c]	8.57	
N#CCc1cc(-c2ccc3c(c2)CCO3)n(-c2ccnc(N[C@H]3CCN(C(=O)C4CC4)C3)n2)n1 [9d]	3.25	
N#CCc1cc(-c2ccc(Cl)c(Cl)c2)n(-c2ccnc(NC3CN(C(=O)C4CC4)C3)n2)n1 [10a]	2.84	
N#CCc1cc(-c2ccc3ccccc3c2)n(-c2ccnc(NC3CN(C(=O)C4CC4)C3)n2)n1 [10b]	2.07	
N#CCc1cc(-c2ccc3c(c2)OCO3)n(-c2ccnc(NC3CN(C(=O)C4CC4)C3)n2)n1 [10c]	5.58	
NC(=O)Cc1cc(-c2ccc(Cl)c(Cl)c2)n(-c2ccnc(N[C@H]3CCCN(C(=O)C4CC4)C3)n2)n1 [11a]	1.46	
COC(=O)Cc1cc(-c2ccc(Cl)c(Cl)c2)n(-c2ccnc(N[C@H]3CCCN(C(=O)C4CC4)C3)n2)n1 [12a]	0.903	
